Data from the supplement of paper PMC10307832.

Assays:
Assay in all cases: relative viability (nuclei count vs DMSO), 5 days (fraction); higher = more cells survive
Pictilisib + Crizotinib = compound: CS(=O)(=O)N1CCN(Cc2cc3nc(-c4cccc5[nH]ncc45)nc(N4CCOCC4)c3s2)CC1 [Pictilisib] + C[C@@H](Oc1cc(-c2cnn(C3CCNCC3)c2)cnc1N)c1c(Cl)ccc(F)c1Cl [Crizotinib] (partner 1 µM)
Method in brief: (§1)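 Values are medians from duplicate plates. Each reflects relative viability, defined as the nuclei count of treated wells over that of vehicle wells. Lung cancer cell lines in 1536-well plates were pin-tool dosed one day after seeding with one drug alone or with a fixed anchor-drug dose plus five library-drug doses (not always all listed) in √10 steps, then fixed, stained and imaged at 4× after 5 days.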

MK-2206 + Olaparib = compound: NC1(c2ccc(-c3nc4ccn5c(=O)[nH]nc5c4cc3-c3ccccc3)cc2)CCC1 [MK-2206] + O=C(c1cc(Cc2n[nH]c(=O)c3ccccc23)ccc1F)N1CCN(C(=O)C2CC2)CC1 [Olaparib] (partner 8 µM)
Method in brief: as §1

MK-2206 + Palbociclib = compound: NC1(c2ccc(-c3nc4ccn5c(=O)[nH]nc5c4cc3-c3ccccc3)cc2)CCC1 [MK-2206] + CC(=O)c1c(C)c2cnc(Nc3ccc(N4CCNCC4)cn3)nc2n(C2CCCC2)c1=O [Palbociclib] (partner 0.5 µM)
Method in brief: as §1

MK-2206 + Pictilisib = compound: NC1(c2ccc(-c3nc4ccn5c(=O)[nH]nc5c4cc3-c3ccccc3)cc2)CCC1 [MK-2206] + CS(=O)(=O)N1CCN(Cc2cc3nc(-c4cccc5[nH]ncc45)nc(N4CCOCC4)c3s2)CC1 [Pictilisib] (partner 1 µM)
Method in brief: as §1

MK-2206 + Dasatinib = compound: NC1(c2ccc(-c3nc4ccn5c(=O)[nH]nc5c4cc3-c3ccccc3)cc2)CCC1 [MK-2206] + Cc1nc(Nc2ncc(C(=O)Nc3c(C)cccc3Cl)s2)cc(N2CCN(CCO)CC2)n1 [Dasatinib] (partner 0.075 µM)
Method in brief: as §1

| Cell Line | relative viability (Pictilisib + Crizotinib; first compound 0.02 µM) | relative viability (Pictilisib + Crizotinib; first compound 0.06325 µM) | relative viability (Pictilisib + Crizotinib; first compound 0.6325 µM) | relative viability (Pictilisib + Crizotinib; first compound 2 µM) | relative viability (MK-2206 + Olaparib; first compound 0.01 µM) | relative viability (MK-2206 + Olaparib; first compound 0.03162 µM) | relative viability (MK-2206 + Olaparib; first compound 0.3162 µM) | relative viability (MK-2206 + Olaparib; first compound 1 µM) | relative viability (MK-2206 + Palbociclib; first compound 0.01 µM) | relative viability (MK-2206 + Palbociclib; first compound 0.03162 µM) | relative viability (MK-2206 + Palbociclib; first compound 0.3162 µM) | relative viability (MK-2206 + Palbociclib; first compound 1 µM) | relative viability (MK-2206 + Pictilisib; first compound 0.01 µM) | relative viability (MK-2206 + Pictilisib; first compound 0.03162 µM) | relative viability (MK-2206 + Pictilisib; first compound 0.3162 µM) | relative viability (MK-2206 + Pictilisib; first compound 1 µM) | relative viability (MK-2206 + Dasatinib; first compound 0.01 µM) | relative viability (MK-2206 + Dasatinib; first compound 0.03162 µM) | relative viability (MK-2206 + Dasatinib; first compound 0.3162 µM) | relative viability (MK-2206 + Dasatinib; first compound 1 µM) |
| --- | --- | --- | --- | --- | --- | --- | --- | --- | --- | --- | --- | --- | --- | --- | --- | --- | --- | --- | --- | --- |
| HOP-62 | 1.07 | 0.972 | 1.01 | 0.671 | 0.472 | 0.412 | 0.574 | 0.573 | 0.407 | 0.468 | 0.452 | 0.485 | 0.563 | 1.11 | 0.728 | 0.48 | 0.592 | 0.73 | 0.624 | 0.665 |
| LC-2-ad | 0.443 | 0.52 | 0.392 | 0.359 | 0.662 | 0.73 | 0.767 | 0.795 | 0.488 | 0.523 | 0.51 | 0.499 | 0.452 | 0.63 | 0.502 | 0.352 | 0.581 | 0.579 | 0.505 | 0.2 |
| LCLC-97TM1 | 0.236 | 0.277 | 0.317 | 0.159 | 0.381 | 0.351 | 0.273 | 0.234 | 0.264 | 0.233 | 0.191 | 0.198 | 0.231 | 0.259 | 0.131 | 0.164 | 0.847 | 0.858 | 0.893 | 0.898 |
| LCLC-103H | 1.05 | 1.04 | 0.882 | 0.71 | 0.548 | 0.768 | 0.777 | 0.731 | 0.496 | 0.499 | 0.461 | 0.462 | 0.642 | 0.688 | 0.54 | 0.701 | 0.459 | 0.497 | 0.461 | 0.355 |
| LK-2 | 0.251 | 0.23 | 0.239 | 0.23 | 0.822 | 0.852 | 0.664 | 0.467 | 0.605 | 0.881 | 0.68 | 0.457 | 0.684 | 0.707 | 0.583 | 0.667 | 0.231 | 0.299 | 0.327 | 0.19 |
| LOU-NH91 | 0.725 | 0.708 | 0.716 | 0.571 | 0.901 | 0.98 | 0.91 | 0.847 | 0.531 | 0.46 | 0.507 | 0.547 | 0.551 | 0.479 | 0.461 | 0.474 | 0.628 | 0.638 | 0.571 | 0.375 |
